≈ marks a conversion by molar mass, not a printed value. Where two headings read alike, the source gives them in different places.
Tests used:
B. subtilis (NCIB 8054) = assay: Agar diffusion test, MIC; format: cell-based, Bacillus subtilis; conditions: Bacillus subtilis
Method: The strains used in this study were Escherichia coli (NCIB 12210) and Bacillus subtilis (NCIB 8054) from National Resource Center All-Russian collection of industrial microorganisms SIC “Kurchatov Institute”). The culture was cultivated for 18–20 h at 37 °C to CFU ≈ 5 × 10^6 – 8 × 10^6 (determined by A600) in liquid nutrient medium Luria–Bertani (pH 7.2): E. coli—without stirring, B. subtilis—with stirring 180 rpm.
(§1) The study of the antibacterial effect of Lev and adjuvants was carried out by (a) agar diffusion test and (b) broth micro-dilution method. (a) A measured 500 µL of 100-fold culture dilution was evenly distributed over a solid nutrient medium (LB, pH 7.2) on a Petri dish. After 20 min, agar disks with a diameter of 9 mm were removed from the cups and 50 µL of the test samples were placed in the formed wells at the required concentration in a sterile PBS buffer (see Section 3.3 (2)). After 30 min, Petri dishes were placed in a 37 °C thermostat. After 24 h, the diameters of the growth inhibition zones were measured. Minimum inhibitory concentrations (MICs) are determined as the infimum of multiple concentrations of an antimicrobial that inhibits the visible growth of a microorganism after overnight incubation. (b) According to the standard broth micro-dilution method, 200 µL of the overnight culture (5 × 10^6 CFU) was placed into a 96 micro-titer plate wells. Then 50 µL of tested samples was added. The range of tested Lev concentration was 4–200 ng/mL, adjuvants concentration was in the range of 0.008–2 mg/mL. Optical density measurements at 600 nm were taken at various times (0, 3, and 18 h) to determine the number of cells. The dependence of CFU (determined by A600) on the concentration of Lev, APAB or terpenoid (briefly X) was approximated according to the Boltzmann equation (Origin software): CFU = (control CFU)/(1 + exp(([X] − MIC50)/constant value)). MIC50 and MIC90 are defined as concentrations at which the inhibition of bacterial growth by 50 and 90% is noticeable, respectively. In other words, the concentration at which the ordinate value (CFU) is equal to 50 or 10% of the control sample minus the background.

B. subtilis = assay: Synergy of adjuvant-MCD with Lev-MCD, growth inhibition zones in agar; format: cell-based, Bacillus subtilis; conditions: for D, diameter of bacterial inhibition zone surrounding Lev–MCD with APAB-MCD: Lev-MCD + X-MCD (1:2), ±0.5; for ϕLev = (D/DLev)^2: ±0.1
Method: We obtained complex formulations containing adjuvants-MCD and Lev-MCD. These complexes were referred to as enhanced Lev. The synergy effect was studied at a constant concentration of Lev and a variable concentration of an enhancer. […] Based on the D/DLev ratio, the effectiveness of cooperative antibacterial action (ϕ) of the adjuvant and Lev was calculated. The fractional inhibitory concentration (FIC) parameter was introduced: at a fixed Lev concentration, the FIC of adjuvant corresponds to the minimum fractional adjuvant concentration at which the antibacterial effect was still manifest (MICadjuvant in the presence of Lev). The fractional inhibitory concentration index (FICI) characterizes the ratio of the active Lev and adjuvant concentrations to the MIC values of these substances individually: FICI=[Lev]/MIC(Lev)[…][adjuvant]/MIC(adjuvant) (see Section 3).
The FICI was interpreted as: synergism (<0.35), additivity (0.35–0.75), indifference (0.75–1.4), or antagonism (>1.4). FICI is designed to determine the type of Lev interaction with adjuvants.
as §1, with “After 24 h, the diameters of the growth inhibition zones were measured.” left out, “Optical density measurements at 600 nm were taken at various times (0, 3, and 18 h) to determine the number of cells.” left out, “MIC50 and MIC90 are defined as concentrations at which the inhibition of bacterial growth by 50 and 90% is noticeable, respectively.” left out
The FICI was interpreted as: synergism (<0.35), additivity (0.35–0.75), indifference (0.76–1.4), or antagonism (>1.4). The essence of this expression is to calculate the average change in the effective concentration compared to MIC. Note that the most important parameter corresponds to a decrease in MIC of Lev. However, FICI is designed to determine the type of interaction Lev with adjuvants.

physchem = conditions: 22 °C, pH 6.2, water
Method: (3) Solubility of X in water C0 = [Xaq] = A/(ε · l) was determined by UV absorbance after centrifugation of samples (10 min, 10,000× g). l = 1 cm. ε—molar absorbance coefficient (Figure 1C).

[1] = NCIB8054, B. subtilis 7 × 10^6 CFU, agar diffusion test, inclusion complexes with MCD, LB pH 7.2, 37 °C, 20 h, read-out: MIC
[2] = B. subtilis, CLev 0.4 μg/mL, ±15%
[3] = B. subtilis, CLev 0.7 μg/mL, ±15%
[4] = B. subtilis, CLev 1.5 μg/mL, ±15%

| SMILES | MIC (B. subtilis (NCIB 8054); [1]) [µg/mL] | FICadjuvant (B. subtilis; B. subtilis, CLev 0.4 μg/mL) [mg/mL] | Type of Interaction between Lev and X (B. subtilis; B. subtilis, CLev 0.4 μg/mL) | D, diameter of bacterial inhibition zone surrounding Lev–MCD with APAB-MCD (B. subtilis; B. subtilis, CLev 0.4 μg/mL) [mm] | ϕLev = (D/DLev)^2 (B. subtilis; B. subtilis, CLev 0.4 μg/mL) | FICI (B. subtilis; [2]) | FICadjuvant (B. subtilis; B. subtilis, CLev 0.7 μg/mL) [mg/mL] | Type of Interaction between Lev and X (B. subtilis; B. subtilis, CLev 0.7 μg/mL) | D, diameter of bacterial inhibition zone surrounding Lev–MCD with APAB-MCD (B. subtilis; B. subtilis, CLev 0.7 μg/mL) [mm] | ϕLev = (D/DLev)^2 (B. subtilis; B. subtilis, CLev 0.7 μg/mL) | FICI (B. subtilis; [3]) | FICadjuvant (B. subtilis; B. subtilis, CLev 1.5 μg/mL) [mg/mL] | Type of Interaction between Lev and X (B. subtilis; B. subtilis, CLev 1.5 μg/mL) | D, diameter of bacterial inhibition zone surrounding Lev–MCD with APAB-MCD (B. subtilis; B. subtilis, CLev 1.5 μg/mL) [mm] | ϕLev = (D/DLev)^2 (B. subtilis; B. subtilis, CLev 1.5 μg/mL) | FICI (B. subtilis; [4]) | solubility (physchem) [µM] | FICI (B. subtilis; B. subtilis, with Lev) | other results |
| --- | --- | --- | --- | --- | --- | --- | --- | --- | --- | --- | --- | --- | --- | --- | --- | --- | --- | --- | --- |
| C=CCc1cc(OC)c2c(c1OC)OCO2 [Apiol] |  |  |  |  |  |  |  |  |  |  |  |  |  |  |  |  |  |  | MIC (B. subtilis (NCIB 8054); NCIB8054, 20 h, pH 7.2): 5300 µg/mL (≈ 23.8 mM) |
| C=CCc1ccc(O)c(OC)c1 [Eugenol, 4-allyl-2-methoxyphenol] | 1000 (≈ 6.09 mM) | 0.10 ± 0.01 | Synergism (synergism (<0.35)) | 14.5 | 1.5 | 0.16 | 0.2 ± 0.02 | Additivity (additivity (0.35–0.75)) | 16 | 1.2 | 0.56 | 0.10 ± 0.01 | Additivity (additivity (0.35–0.75)) | 19 | 1.2 | 0.60 | 8200 ± 200 (≈ 1350 µg/mL) |  | type of interaction with Lev (B. subtilis; Gram-positive cells (B. subtilis)): additivity |
| CC1CCC(C(C)C)C(O)C1 (stereo not shown) [Menthol] | 2600 (≈ 16.6 mM) |  |  |  |  |  |  |  |  |  |  |  |  |  |  |  | 230 ± 40 (≈ 35.9 µg/mL) | 0.08–0.11 | MIC (B. subtilis (NCIB 8054); NCIB8054, B. subtilis, agar diffusion test, read-out: MIC): 2.6 µg/mL (≈ 0.0166 mM); FICadjuvant (B. subtilis; B. subtilis, CLev 0.5 μg/mL): 0.17 ± 0.01 mg/mL; Type of Interaction between Lev and X (B. subtilis; B. subtilis, CLev 0.5 μg/mL): Synergism (synergism (<0.35)); D, diameter of bacterial inhibition zone surrounding Lev–MCD with APAB-MCD (B. subtilis; B. subtilis, CLev 0.5 μg/mL): 18.5 mm; ϕLev = (D/DLev)^2 (B. subtilis; B. subtilis, CLev 0.5 μg/mL): 2.4; FICI (B. subtilis; B. subtilis, CLev 0.5 μg/mL, ±15%): 0.11; FICadjuvant (B. subtilis; B. subtilis, CLev 1 μg/mL): 0.17 ± 0.01 mg/mL; Type of Interaction between Lev and X (B. subtilis; B. subtilis, CLev 1 μg/mL): Synergism (synergism (<0.35)); D, diameter of bacterial inhibition zone surrounding Lev–MCD with APAB-MCD (B. subtilis; B. subtilis, CLev 1 μg/mL): 18 mm; ϕLev = (D/DLev)^2 (B. subtilis; B. subtilis, CLev 1 μg/mL): 1.3; FICI (B. subtilis; B. subtilis, CLev 1 μg/mL, ±15%): 0.23; efficiency parameter ϕ (B. subtilis; B. subtilis, adjuvant-MCD with Lev-MCD): 2.4 |
| C=CCc1ccc2c(c1)OCO2 [Safrole] | 3900 (≈ 24 mM) | 0.17 ± 0.02 | Synergism (synergism (<0.35)) | 14 | 1.4 | 0.08 | 0.33 ± 0.03 | Synergism (synergism (<0.35)) | 16 | 1.1 | 0.28 | 0.15 ± 0.02 | Synergism (synergism (<0.35)) | 20 | 1.4 | 0.27 | 800 ± 100 (≈ 130 µg/mL) | 0.08–0.11 |  |
